The test system of experiment [1] is Puccinia recondita f. Sp. Tritici. In words: Puccinia recondita f. sp. tritici / wheat / leaf disc curative (brown rust). It is filed as in vivo. Conditions: foliar, 144 h, 200 ppm in the applied formulation, wheat leaf segments cv. Kanzler, applied 1 day after inoculation, assessed 6 to 8 days after application, vs untreated, read-out: disease control. How it is done: (§1) Leaf disks or leaf segments of various plant species are cut from plants grown in a greenhouse. The cut leaf disks or segments are placed in multiwell plates (24-well format) onto water agar. The leaf disks are sprayed with a test solution before (preventative) or after (curative) inoculation. Compounds to be tested are prepared as DMSO solutions (max. 10 mg/ml) which are diluted to the appropriate concentration with 0.025% Tween20 just before spraying. The inoculated leaf disks or segments are incubated under defined conditions (temperature, relative humidity, light, etc.) according to the respective test system. A single evaluation of disease level is carried out 3 to 14 days after inoculation, depending on the pathosystem. Percent disease control relative to the untreated check leaf disks or segments is then calculated.
Wheat leaf segments cv. Kanzler are placed on agar in multiwell plates (24-well format). The leaf segments are then inoculated with a spore suspension of the fungus. Plates were stored in darkness at 19° C. and 75% relative humidity. The formulated test compound diluted in water was applied 1 day after inoculation. The leaf segments were incubated at 19° C. and 75% relative humidity under a light regime of 12 hours light/12 hours darkness in a climate cabinet and the activity of a compound was assessed as percent disease control compared to untreated when an appropriate level of disease damage appears in untreated check leaf segments (6 to 8 days after application).
(§2) The following compounds at 200 ppm in the applied formulation give at least 80% disease control in this test when compared to untreated control leaf disks under the same conditions, which show extensive disease development.

Experiment [2] relates to Glomerella Lagenarium (Colletotrichum Lagenarium). In words: Glomerella lagenarium (Colletotrichum lagenarium) liquid culture / cucumber / preventative (anthracnose). Type of experiment: cell-based. Conditions: Colletotrichum orbiculare; 20 ppm in the applied formulation; liquid culture in PDB, 24° C., inhibition of growth measured photometrically 3 to 4 days after application, vs untreated; read-out: disease control. The method in brief: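 Conidia from cryogenic storage were mixed into potato dextrose broth. This was added to compound diluted from DMSO into 0.025% Tween20, tested at 20 ppm. Plates were incubated in the dark at 24 °C and 96% relative humidity, and growth was read photometrically after 2–7 days as % activity versus untreated check.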

The subject of experiment [3] is Puccinia recondita f. Sp. Tritici. Kind of experiment: Puccinia recondita f. sp. tritici / wheat / leaf disc preventative (brown rust). Type of experiment: in vivo. Conditions: foliar, 168 h, 200 ppm in the applied formulation, wheat leaf segments cv. Kanzler, preventative, inoculated 1 day after application, assessed 7 to 9 days after application, vs untreated, read-out: disease control. Here is the method:
as §1
Wheat leaf segments cv. Kanzler were placed on agar in multiwell plates (24-well format) and sprayed with the formulated test compound diluted in water. The leaf disks were inoculated with a spore suspension of the fungus 1 day after application. The inoculated leaf segments were incubated at 19° C. and 75% relative humidity (rh) under a light regime of 12 hours light/12 hours darkness in a climate cabinet and the activity of a compound was assessed as percent disease control compared to untreated when an appropriate level of disease damage appears in untreated check leaf segments (7 to 9 days after application).
as §2

A further experiment has as its system Phakopsora pachyrhizi. In words: Phakopsora pachyrhizi / soybean / leaf disc preventative (Asian soybean rust). It is filed as in vivo. Conditions: foliar, 288 h, 200 ppm in the applied formulation, soybean leaf disks, inoculated one day after application, assessed 12 to 14 days after application, vs untreated, read-out: disease control. Here is the method:
as §1
Soybean leaf disks are placed on water agar in multiwell plates (24-well format) and sprayed with the formulated test compound diluted in water. One day after application leaf discs are inoculated by spraying a spore suspension on the lower leaf surface. After an incubation period in a climate cabinet of 24-36 hours in darkness at 20° C. and 75% rh leaf disc are kept at 20° C. with 12 h light/day and 75% rh. The activity of a compound is assessed as percent disease control compared to untreated when an appropriate level of disease damage appears in untreated check leaf disks (12 to 14 days after application).
as §2

Some results are limits rather than exact numbers.

As to `Cn1c(=O)c2c(ncn2Cc2ccc(-c3noc(C(F)(F)F)n3)cc2)n(C)c1=O` [Compound 1.81, 1,3-dimethyl-7-[[4-[5-(trifluoromethyl)-1,2,4-oxadiazol-3-yl]phenyl]methyl]purine-2,6-dione], the pest or weed control at 200 ppm in experiment [1] and in experiment [3] was no less than 80% in each case. The inhibition of growth at 20 ppm in experiment [2] is no less than 80%.

On to `FC(F)(F)c1nc(-c2ccc(Cn3cnc(-c4ccccc4)c3)cc2)no1` [Compound 1.82, 3-[4-[(4-phenylimidazol-1-yl)methyl]phenyl]-5-(trifluoromethyl)-1,2,4-oxadiazole], for which the pest or weed control at 200 ppm in experiment [1] and in experiment [3] was no less than 80% in each case. The inhibition of growth at 20 ppm in experiment [2] is no less than 80%.

As for `Cc1cn(Cc2ccc(-c3noc(C(F)(F)F)n3)cc2)cn1` [Compound 1.83, 3-[4-[(4-methylimidazol-1-yl)methyl]phenyl]-5-(trifluoromethyl)-1,2,4-oxadiazole], the pest or weed control at 200 ppm in experiment [1] and in experiment [3] was no less than 80% in each case. In addition, the inhibition of growth at 20 ppm in experiment [2] is no less than 80%.

In the case of `COC(=O)c1cncn1Cc1ccc(-c2noc(C(F)(F)F)n2)cc1` [Compound 1.89, methyl 3-[[4-[5-(trifluoromethyl)-1,2,4-oxadiazol-3-yl]phenyl]methyl]imidazole-4-carboxylate], the pest or weed control at 200 ppm in experiment [1] and in experiment [3] was no less than 80% in each case. In addition, the inhibition of growth at 20 ppm in experiment [2] was no less than 80%.

For `COC(=O)c1ncn(Cc2ccc(-c3noc(C(F)(F)F)n3)cc2F)c1C(=O)OC` [Compound 1.118, dimethyl 1-[[2-fluoro-4-[5-(trifluoromethyl)-1,2,4-oxadiazol-3-yl]phenyl]methyl]imidazole-4,5-dicarboxylate], the pest or weed control at 200 ppm in experiment [1] and in experiment [3] was no less than 80% throughout. The inhibition of growth at 20 ppm in experiment [2] is no less than 80%.

Regarding `N#Cc1ncn(Cc2ccc(-c3noc(C(F)(F)F)n3)cc2F)c1C#N` [Compound 1.119, 1-[[2-fluoro-4-[5-(trifluoromethyl)-1,2,4-oxadiazol-3-yl]phenyl]methyl]imidazole-4,5-dicarbonitrile], the pest or weed control at 200 ppm in experiment [1] and in experiment [3] was no less than 80% throughout. The inhibition of growth at 20 ppm in experiment [2] was no less than 80%.

In the case of `Fc1cc(-c2noc(C(F)(F)F)n2)ccc1Cn1cnc(Br)c1` [Compound 1.120, 3-[4-[(4-bromoimidazol-1-yl)methyl]-3-fluoro-phenyl]-5-(trifluoromethyl)-1,2,4-oxadiazole], the pest or weed control at 200 ppm in experiment [1] and in experiment [3] was no less than 80% in each case. For the same compound, the inhibition of growth at 20 ppm in experiment [2] is no less than 80%.

For `Fc1cc(-c2noc(C(F)(F)F)n2)ccc1Cn1cnc(Cl)c1Cl` [Compound 1.121, 3-[4-[(4,5-dichloroimidazol-1-yl)methyl]-3-fluoro-phenyl]-5-(trifluoromethyl)-1,2,4-oxadiazole], the pest or weed control at 200 ppm in experiment [1] and in experiment [3] was no less than 80% throughout. The inhibition of growth at 20 ppm in experiment [2] is no less than 80%.

For the compound `Cc1cn(Cc2ccc(-c3noc(C(F)(F)F)n3)cc2F)cn1` [Compound 1.124, 3-[3-fluoro-4-[(4-methylimidazol-1-yl)methyl]phenyl]-5-(trifluoromethyl)-1,2,4-oxadiazole], the pest or weed control at 200 ppm in experiment [1] and in experiment [3] was no less than 80% in each case. Further, in experiment [2], the inhibition of growth at 20 ppm is no less than 80%.

With `Fc1cc(-c2noc(C(F)(F)F)n2)ccc1Cn1cc(Cl)cn1` [Compound 1.128, 3-[4-[(4-chloropyrazol-1-yl)methyl]-3-fluoro-phenyl]-5-(trifluoromethyl)-1,2,4-oxadiazole], the pest or weed control at 200 ppm in experiment [1] and in experiment [3] was no less than 80% each time. Further, the inhibition of growth at 20 ppm in experiment [2] was no less than 80%.

As to `Fc1cc(-c2noc(C(F)(F)F)n2)ccc1Cn1cc(I)cn1` [Compound 1.131, 3-[3-fluoro-4-[(4-iodopyrazol-1-yl)methyl]phenyl]-5-(trifluoromethyl)-1,2,4-oxadiazole], the pest or weed control at 200 ppm in experiment [1] and in experiment [3] was no less than 80% throughout. For the same compound, the inhibition of growth at 20 ppm in experiment [2] was no less than 80%.

With `Fc1cc(-c2noc(C(F)(F)F)n2)ccc1Cn1cc(Br)cn1` [Compound 1.132, 3-[4-[(4-bromopyrazol-1-yl)methyl]-3-fluoro-phenyl]-5-(trifluoromethyl)-1,2,4-oxadiazole], the pest or weed control at 200 ppm in experiment [1] and in experiment [3] was no less than 80% throughout. Besides, the inhibition of growth at 20 ppm in experiment [2] is no less than 80%.

As for `COC(=O)c1ncn(Cc2ccc(-c3noc(C(F)(F)F)n3)cn2)c1C(=O)OC` [Compound 1.133, dimethyl 1-[[5-[5-(trifluoromethyl)-1,2,4-oxadiazol-3-yl]-2-pyridyl]methyl]imidazole-4,5-dicarboxylate], the pest or weed control at 200 ppm in experiment [1] and in experiment [3] was no less than 80% throughout. The inhibition of growth at 20 ppm in experiment [2] is no less than 80%.

`N#Cc1ncn(Cc2ccc(-c3noc(C(F)(F)F)n3)cn2)c1C#N` [Compound 1.135, 1-[[5-[5-(trifluoromethyl)-1,2,4-oxadiazol-3-yl]-2-pyridyl]methyl]imidazole-4,5-dicarbonitrile]: the pest or weed control at 200 ppm in experiment [1] and in experiment [3] was no less than 80% throughout. Besides, in experiment [2], the inhibition of growth at 20 ppm was no less than 80%.

For the compound `FC(F)(F)c1nc(-c2ccc(Cn3cnc(Cl)c3Cl)nc2)no1` [Compound 1.137, 3-[6-[(4,5-dichloroimidazol-1-yl)methyl]-3-pyridyl]-5-(trifluoromethyl)-1,2,4-oxadiazole], the pest or weed control at 200 ppm in experiment [1] and in experiment [3] was no less than 80% each time. The inhibition of growth at 20 ppm in experiment [2] was no less than 80%.

In the case of `FC(F)(F)c1nc(-c2ccc(Cn3cc(I)cn3)nc2)no1` [Compound 1.144, 3-[6-[(4-iodopyrazol-1-yl)methyl]-3-pyridyl]-5-(trifluoromethyl)-1,2,4-oxadiazole], the pest or weed control at 200 ppm in experiment [1] and in experiment [3] was no less than 80% each time. For the same compound, in experiment [2], the inhibition of growth at 20 ppm is no less than 80%.

Consider `FC(F)(F)c1nc(-c2ccc(Cn3nnc(-c4ccccc4Br)n3)cc2)no1` [Compound 1.153, 3-[4-[[5-(2-bromophenyl)tetrazol-2-yl]methyl]phenyl]-5-(trifluoromethyl)-1,2,4-oxadiazole], for which the pest or weed control at 200 ppm in the experiment with Phakopsora pachyrhizi was no less than 80%.

Regarding `FC(F)(F)c1nc(-c2ccc(Cn3nnc4cc(Cl)c(Oc5ccc6c(c5)OCO6)cc43)cc2)no1` [Compound 1.177, 3-[4-[[6-(1,3-benzodioxol-5-yloxy)-5-chloro-benzotriazol-1-yl]methyl]phenyl]-5-(trifluoromethyl)-1,2,4-oxadiazole], in the experiment with Phakopsora pachyrhizi, the pest or weed control at 200 ppm is no less than 80%.

Regarding `CCOC(=O)c1cc(C2CC2)nn1Cc1ccc(-c2noc(C(F)(F)F)n2)cc1` [Compound 1.187, ethyl 5-cyclopropyl-2-[[4-[5-(trifluoromethyl)-1,2,4-oxadiazol-3-yl]phenyl]methyl]pyrazole-3-carboxylate], the pest or weed control at 200 ppm with Phakopsora pachyrhizi was no less than 80%.

For the compound `COc1ccc(Cc2ccc(-c3noc(C(F)(F)F)n3)cc2)cn1` [Compound 1.254, 3-[4-[(6-methoxy-3-pyridyl)methyl]phenyl]-5-(trifluoromethyl)-1,2,4-oxadiazole], the pest or weed control at 200 ppm in experiment [1] and in experiment [3] was no less than 80% throughout. In experiment [2], the inhibition of growth at 20 ppm is no less than 80%.

In the case of `CON=C1CCN(Cc2ccc(-c3noc(C(F)(F)F)n3)cc2)C1` [Compound 1.292, N-methoxy-1-[[4-[5-(trifluoromethyl)-1,2,4-oxadiazol-3-yl]phenyl]methyl]pyrrolidin-3-imine], the pest or weed control at 200 ppm in experiment [1] and in experiment [3] was no less than 80% each time. Also, the inhibition of growth at 20 ppm in experiment [2] was no less than 80%.

The record behind these values is patent US10798941B2, “Microbiocidal oxadiazole derivatives” (SYNGENTA PARTICIPATIONS AG, priority 2016, dated 2020).
